Results taken from a melting point compilation (Tetko et al.; mined from patent text by program, amines drawn as free bases though some values may be those of a salt).

COc1ccc(C(Cl)=NS(=O)(=O)C=Cc2ccc(Cl)c(Cl)c2)cc1OC gave a melting point of 120 to 125 °C. For CCOC(=O)c1ccc(O)c(-n2cc3c(c2-c2ccccc2)c(=O)n(C)c(=O)n3C)c1, the melting point was 129 to 130 °C. In the case of COc1ccc(CO)nc1I, the melting point is reported as 106 to 108 °C. Work on CCOC(=O)c1noc(-c2ccc(SC)cc2Cl)c1C(=O)C1CC1 yielded a melting point of 50 °C. For O=[N+]([O-])c1cccc2cc(O)c(O)cc12, the melting point was 199 to 201 °C. Compound C#CCC1CC2C3CCC(=O)C3(C)CCC2C2(C)CCC(=O)C=C12 (stereo not drawn) has a melting point of 145 to 146 °C. In the case of CC(Cc1ccc(OCc2cccc(C(F)(F)F)c2)cc1)NC(=O)CC(c1ccccc1)c1ccccc1 (stereo not drawn), the melting point is reported as 110 to 113 °C. CC(=NOCC=Cc1ccccc1)C(=O)O gave a melting point of 89 to 91 °C. COC(=O)Cc1cccc(-c2nc(=O)c3ccccc3s2)n1 gave a melting point of 180 °C. Work on CSc1nc(-c2ccccc2)n(-c2ccc(C)cc2)c(=O)c1C#N yielded a melting point of 258 to 260 °C. For O=C(O)C(=O)Nc1nccs1, the melting point was 174 to 177 °C. In the case of CCN1C(=O)C(=CC=C2C=C(c3ccccc3)C=C3N2c2ccccc2C3(C)C)SC1=S, the melting point is reported as 270 to 272 °C. In the case of Cc1ccc2c(c1)c(C=O)c(Cl)n2C, the melting point is reported as 120 to 121 °C. Work on CCOc1cncc(I)n1 yielded a melting point of 36 to 37 °C. For CCOC(=O)C1=C(COCc2nnn(CCNC(=NC#N)SC)n2)NC(C)=C(C(=O)OC)C1c1cccc(Cl)c1Cl (stereo not drawn), the melting point was 78 to 80 °C. C/C=C1\OC(=O)c2c(Oc3nc(OC)cc(OC)n3)cccc21 gave a melting point of 163 to 165 °C. For Oc1ccc2cc(-c3ccc(-c4ccccc4)[nH]3)ccc2c1, the melting point was 210 °C. Work on CCS(=O)(=O)CCC(=O)NNC(=O)N1Cc2cc(Cl)ccc2Oc2ccccc21 yielded a melting point of 184 to 185 °C. In the case of CCCNC(=O)[C@H]1CN(c2ccc(N3CCOCC3)c(F)c2)C(=O)O1, the melting point is reported as 165 to 167 °C. With CN1CCC(O)(c2cccc3[nH]ccc23)CC1 the melting point was 205 to 206 °C. CC(=O)OCCOc1ncnc(NS(=O)(=O)c2ccc(C)cc2)c1CCc1ccccc1 gave a melting point of 120 to 123 °C. With O=C(Cc1ccccc1O)N1CCOCC1 the melting point was 122 °C. With CCOC(=O)c1c(OC(C)=O)c2ccccc2c2nc3ccccc3nc12 the melting point was 195 to 196 °C. With CCNC1=NS(=O)(=O)c2cc(F)c(F)cc2N1 the melting point was 246 to 252 °C. Cc1cc2c3c(ccc2cc1Br)OC(=O)C3(C)C showed a melting point of 187 to 189 °C. In the case of O=[N+]([O-])c1ccc2c(Br)cc3nc(O)c(O)nc3c2c1, the melting point is reported as > 300 °C. Work on CN(C1CC(C)(C)Oc2ccc(OCc3ccccc3)cc21)S(C)(=O)=O (stereo not drawn) yielded a melting point of 114 to 116 °C. CC(C)(C1=NOS(=O)N1)c1ccc2ccccc2c1 (stereo not drawn) showed a melting point of 146 to 147 °C. For CCCCCCCCCCCCCCCCCCOC[C@@H]1CO[C@@H](COC(=O)Nc2ccncc2)C1 (relative stereo), the melting point was 118 to 123 °C. CCNc1cc(NS(=O)(=O)c2ccc(N)cc2)nc(N)n1 gave a melting point of 272 to 274 °C. CCOC(=O)c1ccc(C(=O)/C=C/c2ccc(SC)cc2)cc1 gave a melting point of 115 to 116 °C. COc1ccc(-c2nc3cc(F)ccc3s2)cc1OC(=O)N1CCOCC1 showed a melting point of 170 °C. With CCOCC1=C(C(=O)OCC)C(c2ccccc2C(F)(F)F)C(C(=O)OCC)=C(C)N1 (stereo not drawn) the melting point was 112 °C. Compound Cc1cc(-c2cncc(OC3SCC(O)C(O)C3O)c2)ccn1 (stereo not drawn) has a melting point of 120 °C. Cn1ccc2cc(C(=N)Nc3cccc(NC(=O)C=Cc4ccccc4)c3)ccc21 showed a melting point of 143 to 148 °C. With CCn1cc(C(=O)O)c(=O)c2cc3c(nc21)CCO3 the melting point was 292 °C. With O=C(c1ccc(F)cc1)C1CCN(C(=O)Cc2ccc(OCc3ccccc3)cc2OCc2ccccc2)CC1 the melting point was 158 to 159 °C. In the case of N#Cc1c(Cl)[nH]c(-c2ccc(Cl)s2)c1Br, the melting point is reported as > 200 °C. In the case of COc1ccc([C@@H]2Sc3cc(Oc4ccc(F)cc4)ccc3N(CCN(C)C)C(=O)[C@@H]2OC(C)=O)cc1F, the melting point is reported as 128 to 132 °C. With COC(=O)c1cc2c3ccccc3n(C)c2s1 the melting point was 134 °C. For CC1COc2c(F)c(F)cc3c(=O)c(C(=O)O)cn1c23 (stereo not drawn), the melting point was > 280 °C. With O=C(CBr)c1cccc(OCc2ccc3ccc(Cl)cc3n2)c1 the melting point was 110 to 112 °C. Compound O=C(OCN1C(=O)c2ccccc2C1=O)c1ccccc1[N+](=O)[O-] has a melting point of 159 to 160 °C. In the case of COCc1nc(C(C)(C)C)c[nH]1, the melting point is reported as 65 to 66 °C. For CCc1cn([C@@H]2CO[C@H](CO)O2)c(=O)[nH]c1=O, the melting point was 132 to 133 °C. With CCOC(=O)c1cn(CC)c2nc(N3CCC(NCC(C)=O)C3)c(F)cc2c1=O (stereo not drawn) the melting point was 212 to 213 °C. Compound COc1cccc(C=CC(=O)c2c(OCC=C(C)C)ccc3c(=O)c4ccccc4oc23)c1 has a melting point of 134 to 136 °C. Compound CCOC(=O)c1ccc(N=C(Nc2ccc(C(=O)OCC)cc2)c2ccccc2Cl)cc1 has a melting point of 98 to 108 °C. CC(C)(C)OC(=O)Nc1ccc(-c2cccc(F)c2F)cc1[N+](=O)[O-] showed a melting point of 93 °C. Work on Cc1nc(N2CCN(Cc3ccccc3)S2(=O)=O)sc1C(=O)NCc1ccccc1 yielded a melting point of 135 to 137 °C. For Cc1ccc2cccc(OCc3c(Cl)ccc(N(C)C(=O)CNC(=O)C=Cc4ccc(C(=O)O)cc4)c3Cl)c2n1, the melting point was 238 to 241 °C. Fc1ccc(C2Cc3cnc(NCCCN4CCCCC4)nc3-c3ccccc32)cc1 (stereo not drawn) showed a melting point of 60 to 62 °C. Work on CC(C)(O)CCn1c2ccccc2c2cc(NC(=O)c3ccccc3C(F)(F)F)ccc21 yielded a melting point of 188 to 189 °C. In the case of CCCCCCCCC1(CCn2ccnc2)SCCS1, the melting point is reported as 98 to 101 °C. With CC1(C)CC(N2C(=O)c3ccc(C(=O)OCC(O)c4ccccc4)cc3C2=O)CC(C)(C)N1 (stereo not drawn) the melting point was 144 to 146 °C. With O=C(O)COc1ccc(CCCS(=O)(=O)c2ccc(Cl)cc2)cc1 the melting point was 159 to 160 °C. For Cn1c(COc2ccc(CC3SC(=O)NC3=O)cc2)nc2ncccc21 (stereo not drawn), the melting point was 231 to 232 °C. Work on Cc1cccc(N2CCN(c3ccc(S)nn3)CC2)c1 yielded a melting point of 174 °C. Work on CCCc1c(OCCCOc2ccc(C(=O)O)cc2F)ccc(C(C)=O)c1OC(C)=O yielded a melting point of 144 to 145 °C. In the case of Cc1nc(COc2ccc3c(c2)c(SC(C)(C)C)c(CC(C)(C)C(=O)O)n3Cc2ccc(Cl)cc2)cs1, the melting point is reported as 196 to 198 °C. Work on COc1cc(C(C)=O)cc(C#N)c1OC yielded a melting point of 125 to 126 °C. In the case of Cc1nc2c(N)nc3ccccc3c2n1CCC(=O)N1CCOCC1, the melting point is reported as 166 to 169 °C. NC(=O)C1(N)CCCCC1 gave a melting point of 99 to 102 °C. In the case of O=C(NC1CCNCC1)N(CCCN1CCC(Cc2ccccc2)CC1)c1ccccc1, the melting point is reported as 85 to 87 °C. COc1ccccc1CNC(=O)c1[nH]c2ccc(Cl)cc2c1S(=O)(=O)c1ccccc1 gave a melting point of 235 to 237 °C. Cc1cc(N=CN(C)C)nc(-c2ccc([N+](=O)[O-])o2)n1 gave a melting point of 176 to 178 °C. Cc1oc(-c2ccco2)nc1COc1ccc(COc2nn(-c3ccccc3)cc2CO)cc1 showed a melting point of 113 to 114 °C. CNNC(=O)c1ccc(Cl)cc1 gave a melting point of 130 to 131 °C. Work on O=C1c2ccccc2C(=O)N1CCCCCCN1CCC(C2(c3ccc(F)cc3)OCCO2)CC1 yielded a melting point of 72 to 76 °C. In the case of CCOC(=O)C1=C(COCc2cc(=O)n(C)c(C)n2)NC(C)=C(C(=O)OC)C1c1cccc(Cl)c1Cl (stereo not drawn), the melting point is reported as 153 to 158 °C. Work on O=C(O)[C@@H](Cc1ccccc1)NS(=O)(=O)N1CCN(c2ccc(Cl)cc2)CC1 yielded a melting point of 176 to 178 °C. For Cc1nc(N2CCc3ccccc3CC2)c(C#N)c(=O)n1N(C)C, the melting point was 134 to 136 °C. CC(=O)Nc1cnc2ccsc2c1 gave a melting point of 192 to 194 °C. For CCOC(=O)Cc1nc(N)cc(Cl)n1, the melting point was 127 to 128 °C. For CC(=O)N1CCC(CCC(=O)c2ccc3c(c2)CCN3)CC1, the melting point was 145 to 146 °C. For Cc1oc(-c2ccccc2)nc1CCOc1ccc(C[C@H](NC(=O)C=Cc2ccc(F)c(F)c2)C(=O)O)cc1, the melting point was 204 to 206 °C. In the case of O=[N+]([O-])c1cc(CO)ccc1Br, the melting point is reported as 61 to 62 °C. Work on N=c1sc2cc(OC(F)(F)F)ccc2n1CCSc1ncccn1 yielded a melting point of 110 °C. In the case of Cc1ccn(-c2ccc(C(=O)N3Cc4cccn4Cc4ccccc43)c(O)c2)n1, the melting point is reported as 134 to 136 °C. For CCSC1(CCO)C(=O)Nc2ccc(F)cc21 (stereo not drawn), the melting point was 125 °C. Compound Cc1nc(Cl)c2c(n1)c(C)nn2CC(F)(F)F has a melting point of 70 °C. With CCCC(=O)NCCCCn1c(C)nc2c(N)nc3ccccc3c21 the melting point was 169 to 170 °C. In the case of CN(C)CCCN1CCC(O)(c2ccccc2)C(C(=O)c2ccccc2)C1 (stereo not drawn), the melting point is reported as 114 to 116 °C. CCc1cn2ccccc2c1S(=O)(=O)c1ccc(OCCCN(C)C(C)c2ccc(OC)c(OC)c2)cc1 (stereo not drawn) showed a melting point of 78 to 80 °C. Cc1c(Sc2ccccc2S(C)(=O)=O)c2cc(NS(C)(=O)=O)ccc2n1CC(=O)O showed a melting point of 227 to 230 °C. With OCn1cc(-c2cc3nccnc3[nH]2)c2ccccc21 the melting point was > 320 °C. CCCCCC(=O)OCc1nccc(O)n1 gave a melting point of 78 °C. With Nc1nc2ccccc2c2c1nc1n2CCCN1 the melting point was > 250 °C. In the case of COc1ccc([C@H](Sc2ccccc2N)[C@@H](O)C(=O)Nc2ccccc2)cc1, the melting point is reported as 215 to 217 °C. Cc1cc(O)c(Cc2ccc(C(C)C)cc2)c(C)c1NC(=O)CC(C)(C)C gave a melting point of 202 to 203 °C. In the case of N=C(NO)c1ccnc(N)c1, the melting point is reported as 188 °C. With NCCNc1ccc2ncc(Br)n2n1 the melting point was 158 to 159 °C. Work on NCCc1ccc(CCNS(=O)(=O)c2ccc(Cl)cc2)cc1 yielded a melting point of 90 to 93 °C. For C#CC1(OCc2ccccc2F)CCN(C(C)=O)CC1, the melting point was 59 to 62 °C. CC(C)C1(C)NC(c2ncc(CO)cc2C(=O)O)=NC1=O (stereo not drawn) gave a melting point of 170 to 172 °C. O=C(O)CC1(c2ccccc2)CCCCC1=O (stereo not drawn) showed a melting point of 130 to 132 °C. For CC(=O)OC12Oc3cc(C)ccc3C1(OC(C)=O)C(=O)c1ccccc12 (stereo not drawn), the melting point was 167 to 169 °C. In the case of CN=C1SCC(O)(c2ccc(Cl)c(S(=O)(=O)NCC(C)OC)c2)N1C (stereo not drawn), the melting point is reported as 148 °C. O=c1oc2ccc(OC3CCCCO3)cc2s1 (stereo not drawn) showed a melting point of 61 to 63 °C. For Cc1ccc(-c2cncc(OC3SCC(O)C(O)C3O)c2)c(Cl)c1 (stereo not drawn), the melting point was 207 °C. With CC(C)(NS(=O)(=O)c1ccc(-c2ccccn2)s1)C(=O)NO the melting point was 165 to 166 °C. CCCCCCCC(=O)OCc1ccccc1-c1nc(-c2cccc(OC)c2)n[nH]1 gave a melting point of 61 °C. Work on Cc1sc(C=O)cc1NC(=O)OCc1ccccc1 yielded a melting point of 120 °C.
